Assay results reported in US10745703B2, “Compositions and methods for treating cancer” (CASE WESTERN RESERVE UNIVERSITY, priority 2009, dated 2020).
Entries after “also recorded” stand apart in the source; their conditions may differ. Where a SMILES comes first, the peptide text is derived from it. The star is where a group is joined. Decanoyl = CCCCCCCCCC(=O)*; Cbz = O=C(OCc1ccccc1)*; CH2Cl = ClC*

Columns and labels:
Type in all cases: cell-based, human
U-87 MG cells = test: Scratch wound assay, U-87 MG cells
Experimental: U-87 MG cells were infected with control or PTPμ shRNA lentivirus. After three days, confluent monolayers of cells were scratched with a 20 μl pipette tip to induce a wound. The wounded edges were imaged using a Nikon (Tokyo, Japan) TE200 inverted microscope and Spot RT digital camera and image acquisition software (Diagnostic Instruments, Inc., Sterling Heights, Mich.) Images were collected with a 10× objective 0, 6, 24, and 48 hours after wounding. Images were quantitated using MetaMorph software (Molecular Devices, Downingtown, Pa.) by measuring the width of the wound at each time point. The difference between the width of the wound at the zero time point and the time point being analyzed was divided by two. This value reflects the distance migrated by the leading edge of one side of the wound during a given time interval. Replicates were averaged and plotted using Microsoft Excel. Error bars indicate standard error. Data were analyzed for statistical significance using an unpaired student's t-test. Rac1 inhibition studies were performed using a Rac1-specific inhibitor from Calbiochem (Gibbstown, N.J.) (J Biol Chem. 2005;280:37516-37525; Proc Natl Acad Sci USA. 2004;101:7618-7623). For morphological studies, the inhibitor was dissolved in water and added at a final concentration of 100 μM just prior to scratching the cells. Cells were analyzed after 6 hours. For migration studies, the inhibitor was dissolved in water and added at a final concentration of 50 μM just prior to scratching the cells. Cells were analyzed after 24 hours.

LN-229 cells = test: Scratch wound assay, LN-229 cells; conditions: for PTPμ fragment-mediated cell migration: LN-229 cells, DAPT 2 μM, GM6001 50 μM; for migration of LN-229 cells: peptide 5 μM, versus scrambled control, 24 hours
Experimental: Confluent monolayers of cells were scratched to induce a wound and analyzed by microscopy for the distance migrated by the leading edge of the wound at 0 and 24 hrs.
(§1) The Furin Inhibitor I (Dec-RVKR-CMK, Calbiochem, Gibbstown, N.J.) was used at 50 μM for 17-20 hours. The γ-secretase inhibitors DAPT (Sigma-Aldrich) and L-685,458 (Sigma-Aldrich) were used at 2 μM and 5 μM, respectively, for 17-20 hours. The proteasome was inhibited with MG132 (Sigma-Aldrich) at 20 μM or epoxomicin (Calbiochem) at 5 μM for 4 hours. GM6001 (Calbiochem) was used at 50 μM as an MMP/ADAM inhibitor for 17-20 hours. Inhibitors were reconstituted in DMSO, which was used as a vehicle control. […] The PTPμ wedge peptide and a scrambled control peptide were synthesized to include a membrane-penetrant Tat-derived sequence at the C-terminus to promote cellular uptake. Peptides synthesized by Genemed Synthesis (San Antonio, Tex.) or GenScript (Piscataway, N.J.) were reconstituted in water and added to cells at a final concentration of 5 μM.

PTPμ = test: Proteolytic processing of PTPμ in LN-229 cells treated with protease inhibitors (biotinylation, immunoprecipitation, immunoblot); conditions: for endogenous PTPμ PΔE and ICD fragments: parental LN-229 cells, immunoprecipitation SK-18, immunoblot SK-7; for PTPμ PΔE and ICD fragments: total lysates of LN-229 cells overexpressing PTPμ or PTPμ-GFP; for furin cleavage of PTPμ (full-length PTPμ at the cell surface, P-subunit formation): LN-229 cells, cell surface biotinylation, inhibitor 50 μM, 17-20 hours
Experimental: Cell lysates were prepared and immunoblotted using normalized samples of ˜20 μg protein detected with monoclonal antibodies recognizing the intracellular segment of PTPμ (SK-7 or SK-18) (Mol Cell Biochem 1993; 127-128: 131-41). An antibody against vinculin was from Sigma-Aldrich (St. Louis, Mo.). The GFP antibody JL-8 was from Clontech (Mountain View, Calif.).
Cell surface biotinylation was performed using a Sulfo-NHS-SS-Biotin Kit (Pierce). Biotinylated proteins were isolated and resolved by SDS-PAGE on 6% gels followed by immunoblotting with an antibody to PTPμ (SK-18) as described (Mol Cancer Res 2008; 6: 1106-13).
as §1
Cells were grown to confluence, treated with inhibitors, and lysed in 20 mM Tris-HCL, pH 7.5, 1% Triton X-100, 150 mM NaCl, 2 mM EDTA, 1 mM benzamidine, aprotinin (5 μg/ml), leupeptin (5 μg/ml) and pepstatin (1 μg/ml). Samples were sonicated and centrifuged at 10,000 rpm for 5 minutes. Immunoprecipitations from ˜400 μg total protein were performed using a PTPμ antibody (SK-18) and resolved by SDS-PAGE on 8% gels followed by immunoblotting with an antibody to PTPμ (SK-7).

CCN(CC)CCCC(C)Nc1nc(C)cc(Nc2ccc3nc(C)cc(N)c3c2)n1 (racemic) [Rac1 inhibitor]
induction of lamellipodia in cells with reduced PTPμ expression (U-87 MG cells; U-87 MG cells with PTPμ shRNA #1, inhibitor 100 μM, 6 hours): prevented the induction of lamellipodia; also recorded: blocked the formation of PTPμ-induced lamellipodia | migration induced by the loss of PTPμ (distance migrated by leading edge) (U-87 MG cells; U-87 MG cells with PTPμ shRNA, inhibitor 50 μM, 24 hours): significantly suppressed the migration; also recorded: significantly reduced the migration | effect on morphology of control U-87 MG cells (U-87 MG cells; control shRNA U-87 MG cells, inhibitor 100 μM, 6 hours): no effect on morphology

C[C@H](NC(=O)Cc1cc(F)cc(F)c1)C(=O)N[C@H](C(=O)OC(C)(C)C)c1ccccc1 [DAPT]
PTPμ fragment-mediated cell migration (LN-229 cells): increased migration | endogenous PTPμ PΔE and ICD fragments (PTPμ): stabilized a fragment that corresponds by molecular weight to a membrane-tethered truncated P-subunit termed PΔE | PTPμ PΔE and ICD fragments (PTPμ): accumulation of PTPμ PΔE and ICD; also recorded: stabilized

CCCCCCCCCC(=O)N[C@@H](CCCN=C(N)N)C(=O)N[C@H](C(=O)N[C@@H](CCCCN)C(=O)N[C@@H](CCCN=C(N)N)C(=O)CCl)C(C)C [Furin Inhibitor I, Dec-RVKR-CMK] (Decanoyl-RVKR-CH2Cl)
furin cleavage of PTPμ (full-length PTPμ at the cell surface, P-subunit formation) (PTPμ; listed as inhibitor of furin): prevented P-subunit formation | furin cleavage of PTPμ (full-length PTPμ at the cell surface, P-subunit formation) (PTPμ; listed as inhibitor of furin activity): accumulation of full-length PTPμ (200 kDa) at the cell surface

CNC(=O)[C@H](Cc1c[nH]c2ccccc12)NC(=O)[C@@H](CC(=O)NO)CC(C)C [GM6001]
PTPμ fragment-mediated cell migration (LN-229 cells): decreased migration | endogenous PTPμ PΔE and ICD fragments (PTPμ): limited the formation of PTPμ PΔE and ICD fragments

CC(C)C[C@H](NC(=O)[C@H](Cc1ccccc1)C[C@@H](O)[C@H](Cc1ccccc1)NC(=O)OC(C)(C)C)C(=O)N[C@@H](Cc1ccccc1)C(N)=O [L685,458, L-685,458]
PTPμ PΔE and ICD fragments (PTPμ): accumulation of PTPμ PΔE and ICD; also recorded: stabilized

CC(C)C[C@@H](C=O)NC(=O)[C@H](CC(C)C)NC(=O)[C@H](CC(C)C)NC(=O)OCc1ccccc1 [MG132] (Cbz-Leu-Leu-Leu-aldehyde)
endogenous PTPμ PΔE and ICD fragments (PTPμ): accumulation of both PΔE and a soluble fragment termed PTPμ intracellular domain (ICD); also recorded: stabilized | PTPμ PΔE and ICD fragments (PTPμ): accumulation of PTPμ PΔE and ICD; also recorded: stabilized

CC[C@H](C)[C@H](NC(=O)[C@H]([C@@H](C)CC)N(C)C(C)=O)C(=O)N[C@H](C(=O)N[C@@H](CC(C)C)C(=O)[C@@]1(C)CO1)[C@@H](C)O [epoxomicin]
PTPμ PΔE and ICD fragments (PTPμ): Stabilization of PTPμ ICD; also recorded: stabilized

PTPμ wedge peptide: Peptide targeting the helix-loop-helix wedge domain of PTPμ with a membrane-penetrant Tat-derived sequence at the C-terminus (likely SEQ ID NO: 5) (DLLQHITQMKCAEGYGFKEEYESGRKKRRQRRRC)
migration of LN-229 cells (LN-229 cells): significantly reduced migration | migration of LN-229 cells (LN-229 cells; listed as PTPμ wedge inhibitor peptide): statistically significant difference in migration
